# Results taken from PubChem BioAssay (NCI).
#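 A five-concentration, 48-hour dose response in 96-well plates underlies each endpoint, interpolated linearly between surrounding concentrations. The concentration for full growth arrest is given as TGI.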
# How the values were obtained:
# Assay in all cases: growth of human tumour cells (NCI), 48 h
# [1] = system: SN12C renal
# [2] = system: HS 578T breast
# [3] = system: SR leukemia
# [4] = system: A498 renal
# [5] = system: 786-0 renal
# [6] = system: LOX IMVI melanoma
# [7] = system: UACC-257 melanoma
# [8] = system: CAKI-1 renal
# [9] = system: HCT-116 colon
# [10] = system: NCI/ADR-RES ovarian
# [11] = system: PC-3 prostate
# [12] = system: UO-31 renal
# [13] = system: HOP-92 NSCLC
# [14] = system: RPMI-8226 leukemia
# [15] = system: A549 NSCLC
# [16] = system: K-562 leukemia
# [17] = system: MCF7 breast
# [18] = system: MDA-MB-435
# [19] = system: MOLT-4 leukemia
# [20] = system: DU-145 prostate
SMILES,TGI [1] [µM],TGI [2] [µM],TGI [3] [µM],TGI [4] [µM],TGI [5] [µM],TGI [6] [µM],TGI [7] [µM],TGI [8] [µM],TGI [9] [µM],TGI [10] [µM],TGI [11] [µM],TGI [12] [µM],TGI [13] [µM],TGI [14] [µM],TGI [15] [µM],TGI [16] [µM],TGI [17] [µM],TGI [18] [µM],TGI [19] [µM],TGI [20] [µM]
N/C(=N\N=C\c1c[nH]c2cc(C(F)(F)F)ccc2c1=O)NO,> 10,> 10,> 10,> 10,> 10,> 10,> 10,> 10,> 10,> 10,> 10,> 10,> 10,> 10,> 10,> 10,> 10,> 10,> 10,> 10
c1ccc(C2SCc3nc4cc5ccccc5cc4n32)cc1 (configuration not stated),> 100,> 100,> 100,,> 100,> 100,> 100,> 100,> 100,> 100,> 100,> 100,> 100,> 100,> 100,> 100,> 100,> 100,> 100,> 100
CC(=O)Nc1ccc(CNc2cc(=O)n(C)c(=O)[nH]2)cc1,> 100,> 100,> 100,,> 100,> 100,> 100,> 100,> 100,> 100,> 100,> 100,> 100,> 100,> 100,> 100,> 100,> 100,> 100,> 100
O=c1oc2nc(-c3ccccc3)cc(C(F)(F)F)c2n1Cc1ccccc1,> 100,> 75.3,> 100,9.48,> 100,> 100,> 100,> 100,> 100,> 60.4,> 100,> 100,> 100,> 30.8,> 100,> 100,> 100,3.13,> 100,> 100
C1=Nc2sc3c(c2C2=NCCN12)CCCC3,,51.8,> 100,46.6,34.1,28.2,30,31.1,30.5,34.6,30.7,30.1,,43.3,,> 100,33.7,41,36.4,30.1
Cc1ccc(S(=O)(=O)/N=C(\N)N(C)N=O)cc1,> 100,> 100,> 100,> 100,> 100,> 100,> 100,> 100,> 100,> 100,> 100,> 100,> 100,> 100,> 100,> 100,> 100,> 100,> 100,> 100
COC(=O)Nc1nc2ccc(S(=O)(=O)n3nnc4ccccc43)cc2[nH]1,> 100,> 100,> 100,> 100,> 100,> 100,43.9,> 100,> 100,> 100,> 100,> 100,35.8,> 100,> 100,> 100,> 100,> 100,> 100,> 100
Cc1cccc2c(N)c3cccc(C(=O)NCC[N+](C)(C)Cc4sccc4[N+](=O)[O-])c3nc12,> 100,28.3,> 100,> 100,> 100,61,> 100,43.9,96.8,> 100,77,> 100,> 100,,16.9,> 100,25.2,> 100,> 100,> 100
C=CCCCC1SC2=C(CC)CCCN2C1=O (configuration not stated),> 100,> 100,> 100,> 100,> 100,> 100,63.1,> 100,> 100,> 100,> 100,> 100,> 100,> 100,> 100,> 100,> 100,> 100,> 100,> 100
O=C(NNc1ccnc2cc(Cl)ccc12)/C(=C\c1ccccc1Cl)NC(=O)c1ccccc1,> 100,> 100,> 100,,> 100,32,> 100,> 100,> 100,73.7,> 100,> 100,> 100,> 100,> 100,> 100,46.1,> 100,,> 100
CCOC(=O)C(NCc1ccc2c(c1)OCO2)(NC(=O)c1ccccc1)C(F)(F)F (configuration not stated),> 100,> 100,> 100,,> 100,> 100,> 100,> 100,> 100,> 100,> 100,> 100,> 100,> 100,> 100,> 100,> 100,> 100,50.8,> 100
COc1ccc(OC)c(C23CCCC(C2)N(C)CC3)c1 (configuration not stated),> 100,> 100,44.7,89.9,85.3,,> 100,> 100,41.3,> 100,41.2,> 100,,42.2,> 100,43,32.1,37.9,> 100,91.9
O1C2C1C1OC1C1OC1C1OC21 (configuration not stated),> 100,> 100,> 100,> 100,> 100,> 100,> 100,> 100,> 100,> 100,> 100,> 100,> 100,,> 100,> 100,> 100,> 100,> 100,> 100
CCn1c(-c2ccc(F)cc2)nc2c1C(=O)c1ccccc1C2=O,> 100,> 100,> 100,,> 100,,> 100,,> 100,> 100,> 100,,> 100,> 100,> 100,> 100,> 100,> 100,> 100,> 100
C=C1CCCCCCCCCCC12SCCC2CCCCSC (configuration not stated),53.9,> 100,53.4,35.8,87.4,34.2,52.8,,33.9,46.2,56.1,60.4,62.5,46,> 100,44,39.3,75.7,40.1,> 100
C=CCn1c(C23CC4CC(CC(C4)C2)C3)n[nH]c1=S,> 100,> 100,29.3,> 100,> 100,> 100,> 100,,> 100,> 100,> 100,> 100,,> 100,,> 100,> 100,> 100,> 100,> 100
N#Cc1nc(COCc2ccccc2)oc1N,> 100,> 100,> 100,,> 100,> 100,> 100,> 100,> 100,> 100,> 100,> 100,> 100,> 100,> 100,> 100,> 100,> 100,> 100,> 100
COc1ccc(N=C2C(=Nc3ccc(OC)cc3)N(S(=O)(=O)c3ccccc3)C(=S)N2c2ccccc2)cc1,> 100,> 100,> 100,,> 100,,> 100,> 100,,> 100,> 100,> 100,> 100,> 100,> 100,> 100,> 100,> 100,> 100,> 100
Cc1ccc(/C(=C\C(=O)C(=O)NC23CC4CC(CC(C4)C2)C3)Sc2ccccc2)cc1,> 10,> 10,> 10,> 10,> 10,> 10,> 10,> 10,,> 10,> 10,> 10,,> 10,,> 10,> 10,> 10,> 10,> 10
CCOC(=O)C(C)(C(=O)OCC)/C(Cl)=C\Cl,> 100,> 100,> 100,,> 100,> 100,> 100,> 100,> 100,> 100,> 100,> 100,> 100,> 100,> 100,> 100,> 100,> 100,> 100,> 100
O=C1/C(=C/c2ccc(Cl)cc2)N=C(c2ccccc2)N1c1nc2ccccc2s1,,75.7,> 100,97.1,> 100,> 100,> 100,> 100,> 100,> 100,> 100,> 100,> 100,> 100,,> 100,> 100,> 100,57.7,> 100
CN(C)CCNC(=O)Cn1cc([N+](=O)[O-])c(=O)c2ccccc21,> 100,> 100,> 100,> 100,> 100,,> 100,> 100,> 100,> 100,> 100,> 100,,,> 100,> 100,> 100,> 100,> 100,> 100
Cc1cccc(/C=C2\CCCc3ccccc3C2=O)c1,38,32.6,40.3,,> 100,37,61.8,> 100,31.2,69.2,> 100,> 100,58.5,45.8,> 100,48.8,56.2,37,68.6,> 100
O=C(CCCN1CCC2(CC1)NC(=O)c1ccccc1O2)c1ccc(F)cc1,> 100,> 100,> 100,,> 100,> 100,> 100,> 100,> 100,> 100,> 100,> 100,> 100,> 100,> 100,> 100,> 100,> 100,> 100,> 100
Cc1nn(C(=O)c2ccc(Cl)cc2)c2c1C(c1cccc([N+](=O)[O-])c1)SC(N)=N2 (configuration not stated),> 10,> 10,> 10,,> 10,> 10,> 10,> 10,> 10,> 10,> 10,,> 10,> 10,> 10,> 10,> 10,> 10,> 10,> 10
COc1cc(=O)n2c3ccccc3n(C)c2c1C#N,> 100,> 100,> 100,> 100,> 100,,> 100,> 100,> 100,> 100,> 100,> 100,> 100,> 100,> 100,> 100,> 100,> 100,> 100,> 100
